In ChEMBL document CHEMBL1909046, “DrugMatrix in vitro pharmacology data”:
pIC50, pKi: −log10 of the molar value.

Experiments:
[1] = target: D(1A) dopamine receptor (Homo sapiens, UniProt P21728); assay: DRUGMATRIX: Dopamine D1 radioligand binding (ligand: [3H] SCH-23390); type: cell membranes, CHO, Membrane; settings: Not Active = under 50% inhibition at 10 µM; for IC50: cho; for pIC50: read-out: IC50; for pKi: read-out: Ki
[2] = target: T1, Receptor-type tyrosine-protein phosphatase C (Homo sapiens, UniProt P08575); design: species or system Escherichia coli;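 also: inhibition of CD45 enzyme activity measured using DiFMUP as substrate; in other assays of this panel Not Active means under 50% inhibition at 10 µM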
T1 sequence (P08575 whole entry): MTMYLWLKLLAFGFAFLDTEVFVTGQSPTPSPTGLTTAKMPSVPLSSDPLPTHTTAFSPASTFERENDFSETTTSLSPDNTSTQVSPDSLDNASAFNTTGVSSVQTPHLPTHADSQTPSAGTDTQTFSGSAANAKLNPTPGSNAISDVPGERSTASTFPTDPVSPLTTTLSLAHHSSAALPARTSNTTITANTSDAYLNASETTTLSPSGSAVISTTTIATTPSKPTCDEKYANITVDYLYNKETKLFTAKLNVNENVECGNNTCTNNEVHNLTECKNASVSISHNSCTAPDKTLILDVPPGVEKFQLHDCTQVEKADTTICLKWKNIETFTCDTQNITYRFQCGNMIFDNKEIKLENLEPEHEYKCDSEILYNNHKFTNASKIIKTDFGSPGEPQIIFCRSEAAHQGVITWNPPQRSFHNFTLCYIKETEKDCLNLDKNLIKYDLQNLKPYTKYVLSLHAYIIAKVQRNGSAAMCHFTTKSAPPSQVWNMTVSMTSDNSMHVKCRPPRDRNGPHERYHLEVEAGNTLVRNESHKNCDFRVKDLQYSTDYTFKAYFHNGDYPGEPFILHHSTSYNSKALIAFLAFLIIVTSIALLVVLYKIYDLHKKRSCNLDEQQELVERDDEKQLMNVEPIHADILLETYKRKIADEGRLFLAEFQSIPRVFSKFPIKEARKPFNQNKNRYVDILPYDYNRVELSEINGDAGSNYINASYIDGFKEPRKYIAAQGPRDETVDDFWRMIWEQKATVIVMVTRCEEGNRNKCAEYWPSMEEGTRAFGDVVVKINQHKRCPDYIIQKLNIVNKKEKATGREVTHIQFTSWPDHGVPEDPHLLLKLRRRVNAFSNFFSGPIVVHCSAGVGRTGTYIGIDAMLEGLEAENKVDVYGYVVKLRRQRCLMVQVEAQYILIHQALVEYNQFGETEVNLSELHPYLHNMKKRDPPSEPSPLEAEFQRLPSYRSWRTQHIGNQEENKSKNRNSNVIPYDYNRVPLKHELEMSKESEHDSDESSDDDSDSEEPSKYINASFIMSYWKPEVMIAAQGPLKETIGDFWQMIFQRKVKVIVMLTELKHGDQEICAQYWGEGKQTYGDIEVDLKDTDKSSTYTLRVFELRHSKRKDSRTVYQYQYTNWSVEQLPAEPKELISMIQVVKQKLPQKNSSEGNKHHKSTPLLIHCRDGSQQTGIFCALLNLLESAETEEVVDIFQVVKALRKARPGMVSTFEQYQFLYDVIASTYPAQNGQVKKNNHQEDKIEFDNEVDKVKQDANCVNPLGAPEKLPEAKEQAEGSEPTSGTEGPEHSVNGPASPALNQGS

[3] = target: T2, Alpha-1A adrenergic receptor (Rattus norvegicus, UniProt P43140); assay: DRUGMATRIX: Alpha-1A adrenergic receptor radioligand binding (ligand: prazosin); type: cell membranes, Wistar, Submaxillary gland, Membrane; settings: Not Active = under 50% inhibition at 10 µM; for pIC50: read-out: IC50; for pKi: read-out: Ki
T2 sequence (P43140 whole entry): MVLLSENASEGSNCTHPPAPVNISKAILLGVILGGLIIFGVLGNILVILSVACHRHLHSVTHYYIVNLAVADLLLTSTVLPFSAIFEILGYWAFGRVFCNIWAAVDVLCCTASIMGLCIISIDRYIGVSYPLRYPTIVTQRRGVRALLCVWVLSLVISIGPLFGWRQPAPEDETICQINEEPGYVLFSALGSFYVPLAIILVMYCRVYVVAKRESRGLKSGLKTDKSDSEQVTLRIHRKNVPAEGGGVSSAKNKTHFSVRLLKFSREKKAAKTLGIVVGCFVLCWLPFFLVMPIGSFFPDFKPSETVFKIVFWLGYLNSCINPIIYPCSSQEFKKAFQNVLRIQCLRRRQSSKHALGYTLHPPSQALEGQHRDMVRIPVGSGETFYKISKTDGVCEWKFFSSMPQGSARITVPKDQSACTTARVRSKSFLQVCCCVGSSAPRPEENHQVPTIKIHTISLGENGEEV

[4] = target: T3, Nitric oxide synthase, inducible (Mus musculus, UniProt P29477); design: species or system Escherichia coli;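 also: inhibition of iNOS enzyme activity measured with L-arginine as substrate; in other assays of this panel Not Active means under 50% inhibition at 10 µM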
T3 sequence (P29477 whole entry): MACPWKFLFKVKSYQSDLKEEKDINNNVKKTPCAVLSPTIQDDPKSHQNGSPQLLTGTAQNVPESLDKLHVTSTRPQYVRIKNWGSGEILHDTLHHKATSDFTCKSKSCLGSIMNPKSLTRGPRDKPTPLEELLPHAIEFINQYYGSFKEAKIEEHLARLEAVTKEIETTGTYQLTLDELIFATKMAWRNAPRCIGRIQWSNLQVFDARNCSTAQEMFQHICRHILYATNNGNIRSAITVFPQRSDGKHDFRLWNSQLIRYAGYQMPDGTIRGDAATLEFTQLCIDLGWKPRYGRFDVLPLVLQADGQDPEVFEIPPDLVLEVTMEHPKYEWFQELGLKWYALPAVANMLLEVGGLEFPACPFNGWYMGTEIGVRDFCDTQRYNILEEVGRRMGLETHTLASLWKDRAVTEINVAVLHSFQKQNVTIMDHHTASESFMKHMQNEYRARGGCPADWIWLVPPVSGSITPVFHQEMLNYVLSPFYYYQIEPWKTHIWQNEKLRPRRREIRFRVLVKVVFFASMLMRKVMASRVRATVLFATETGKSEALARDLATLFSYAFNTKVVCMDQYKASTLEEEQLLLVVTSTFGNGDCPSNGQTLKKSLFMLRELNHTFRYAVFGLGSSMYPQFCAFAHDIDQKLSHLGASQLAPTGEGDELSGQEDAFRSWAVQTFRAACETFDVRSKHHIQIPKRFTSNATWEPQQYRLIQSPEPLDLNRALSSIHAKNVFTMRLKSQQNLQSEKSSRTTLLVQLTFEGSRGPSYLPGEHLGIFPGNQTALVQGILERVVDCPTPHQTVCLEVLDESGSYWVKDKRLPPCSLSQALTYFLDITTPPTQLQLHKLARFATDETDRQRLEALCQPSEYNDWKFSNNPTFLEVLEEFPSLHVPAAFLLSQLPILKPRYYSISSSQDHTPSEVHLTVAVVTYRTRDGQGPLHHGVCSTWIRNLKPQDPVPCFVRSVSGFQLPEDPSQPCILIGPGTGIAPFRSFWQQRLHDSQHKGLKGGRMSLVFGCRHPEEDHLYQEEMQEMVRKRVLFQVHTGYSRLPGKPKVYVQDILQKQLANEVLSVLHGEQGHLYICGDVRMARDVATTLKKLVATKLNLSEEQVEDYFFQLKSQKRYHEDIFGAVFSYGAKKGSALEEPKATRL

D(1A) dopamine receptor, sequence (P21728 whole entry): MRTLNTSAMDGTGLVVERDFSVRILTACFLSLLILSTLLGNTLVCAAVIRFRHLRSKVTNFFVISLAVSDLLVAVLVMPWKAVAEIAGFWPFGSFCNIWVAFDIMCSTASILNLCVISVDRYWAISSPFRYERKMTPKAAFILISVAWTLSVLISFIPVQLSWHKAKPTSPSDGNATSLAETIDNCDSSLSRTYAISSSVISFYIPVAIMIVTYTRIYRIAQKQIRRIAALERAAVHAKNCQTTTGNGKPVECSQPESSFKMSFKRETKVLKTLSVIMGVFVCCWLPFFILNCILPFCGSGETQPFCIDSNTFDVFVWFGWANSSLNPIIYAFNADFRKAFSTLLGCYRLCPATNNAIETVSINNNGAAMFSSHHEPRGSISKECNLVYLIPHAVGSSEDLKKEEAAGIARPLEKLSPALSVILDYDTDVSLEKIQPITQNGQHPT

| SMILES | IC50 [1] | IC50 [2] | IC50 [3] | IC50 [4] | pIC50 [1] | pKi [1] | pIC50 [3] | pKi [3] | Ki [2] |
| --- | --- | --- | --- | --- | --- | --- | --- | --- | --- |
| CC(C)(C)NC(=O)[C@@H]1C[C@@H]2CCCC[C@@H]2CN1C[C@@H](O)[C@H](Cc1ccccc1)NC(=O)[C@H](CC(N)=O)NC(=O)c1ccc2ccccc2n1 | Not Active | Not Active | Not Active | Not Active |  |  |  |  |  |
| CC(=O)[C@@]1(O)CC[C@H]2[C@@H]3C[C@H](C)C4=CC(=O)CC[C@]4(C)[C@H]3CC[C@@]21C | Not Active | Not Active | Not Active | Not Active |  |  |  |  |  |
| N[C@@H](Cc1ccc(N(CCCl)CCCl)cc1)C(=O)O | Not Active | Not Active | Not Active | Not Active |  |  |  |  |  |
| CCCCc1oc2ccccc2c1C(=O)c1cc(I)c(OCCN(CC)CC)c(I)c1 [AMIODARONE] |  | Not Active | Not Active | Not Active |  |  |  |  |  |
| OCCN(CCO)c1nc(N2CCCCC2)c2nc(N(CCO)CCO)nc(N3CCCCC3)c2n1 [DIPYRIDAMOLE] | Not Active | Not Active | Not Active | Not Active |  |  |  |  |  |
| Cc1oncc1C(=O)Nc1ccc(C(F)(F)F)cc1 [LEFLUNOMIDE] | Not Active | Not Active | Not Active | Not Active |  |  |  |  |  |
| c1ccc([C@H]2CN3CCSC3=N2)cc1 [LEVAMISOLE] | Not Active | Not Active | Not Active | Not Active |  |  |  |  |  |
| N[C@@H](Cc1ccc(O)c(O)c1)C(=O)O [LEVODOPA] | Not Active | Not Active | Not Active | Not Active |  |  |  |  |  |
| N[C@@H](Cc1cc(I)c(Oc2ccc(O)c(I)c2)c(I)c1)C(=O)O [LIOTHYRONINE] | Not Active | Not Active | Not Active | Not Active |  |  |  |  |  |
| O=NN(CCCl)C(=O)NC1CCCCC1 [LOMUSTINE] | Not Active | Not Active | Not Active | Not Active |  |  |  |  |  |
| CCOC(=O)N1CCC(=C2c3ccc(Cl)cc3CCc3cccnc32)CC1 [LORATADINE] | Not Active | Not Active | Not Active | Not Active |  |  |  |  |  |
| Cn1ccnc1S [METHIMAZOLE] | Not Active | Not Active | Not Active | Not Active |  |  |  |  |  |
| CC[C@@H](CO)NC(=O)[C@@H]1C=C2c3cccc4[nH]cc(c34)C[C@H]2N(C)C1 [METHYLERGONOVINE] |  | Not Active | Not Active | Not Active | 5.97 | 6.27 |  |  |  |
| COc1nc(C)nc(Cl)c1NC1=NCCN1 [MOXONIDINE] | Not Active | Not Active | Not Active | Not Active |  |  |  |  |  |
| COc1c(C)c2c(c(O)c1C/C=C(\C)CCC(=O)O)C(=O)OC2 [MYCOPHENOLIC ACID] | Not Active | Not Active | Not Active | Not Active |  |  |  |  |  |
| O=c1ncn2nc(Sc3ccc(F)cc3F)ccc2c1-c1c(Cl)cccc1Cl [NEFLAMAPIMOD] | Not Active | Not Active | Not Active | Not Active |  |  |  |  |  |
| CN1CCN(CCCN2c3ccccc3Sc3ccc(Cl)cc32)CC1 [PROCHLORPERAZINE] |  | Not Active |  | Not Active |  |  | 7.49 | 7.89 |  |
| CO[C@H]1/C=C/O[C@@]2(C)Oc3c(C)c(O)c4c(O)c(c(/C=N/N5CCN(C)CC5)c(O)c4c3C2=O)NC(=O)/C(C)=C\C=C\[C@H](C)[C@H](O)[C@@H](C)[C@@H](O)[C@@H](C)[C@H](OC(C)=O)[C@@H]1C [RIFAMPIN] | Not Active | Not Active | Not Active | Not Active |  |  |  |  |  |
| Nc1nc2ccc(OC(F)(F)F)cc2s1 [RILUZOLE] | Not Active |  | Not Active | Not Active |  |  |  |  | Not Active |
| Cc1nc2n(c(=O)c1CCN1CCC(c3noc4cc(F)ccc34)CC1)CCCC2 [RISPERIDONE] |  | Not Active |  | Not Active |  |  |  |  |  |
| C=CCC1(C(C)CCC)C(=O)NC(=O)NC1=O (stereo unspecified) [SECOBARBITAL] | Not Active | Not Active | Not Active | Not Active |  |  |  |  |  |
| C[C@@H]1CN(c2c(F)c(N)c3c(=O)c(C(=O)O)cn(C4CC4)c3c2F)C[C@H](C)N1 [SPARFLOXACIN] | Not Active | Not Active | Not Active | Not Active |  |  |  |  |  |
| Cc1noc(NS(=O)(=O)c2ccc(N)cc2)c1C [SULFISOXAZOLE] | Not Active | Not Active | Not Active | Not Active |  |  |  |  |  |
| CSc1ccc(/C=C2/C(C)=C(CC(=O)O)c3cc(F)ccc32)cc1 [SULINDAC SULFIDE] |  | Not Active | Not Active | Not Active | 4.56 | 4.86 |  |  |  |
| Nc1c2c(nc3ccccc13)CCCC2 [TACRINE] | Not Active | Not Active |  | Not Active |  |  | 5.56 | 5.95 |  |
| CC/C(=C(\c1ccccc1)c1ccc(OCCN(C)C)cc1)c1ccccc1 [TAMOXIFEN] |  | Not Active |  | Not Active |  |  | 4.66 | 5.05 |  |
| CC(C)N1CCN(c2ccc(OCC3COC(Cn4cncn4)(c4ccc(Cl)cc4Cl)O3)cc2)CC1 (stereo unspecified) [TERCONAZOLE] |  | Not Active |  | Not Active |  |  | 4.88 | 5.27 |  |
| Nc1nc2nc[nH]c2c(=S)[nH]1 [THIOGUANINE] | Not Active | Not Active | Not Active | Not Active |  |  |  |  |  |
| Cc1cccc(N(C)C(=S)Oc2ccc3ccccc3c2)c1 [TOLNAFTATE] | Not Active | Not Active | Not Active | Not Active |  |  |  |  |  |
